Data on three molecules can be found in ChEMBL document CHEMBL5728935, “Heterocycles useful as anti-cancer agents” (2022).

Experiment [1] has as its target CDK2/Cyclin A2 (Homo sapiens, UniProt P24941). In words: (§1) Kinase Assay: In vitro enzymatic activity of the CDK isoforms CDK2/CycA2, CDK4/CycD3 and CDK6/cycD3 were measured using Mobility Shift Assay that monitors phosphorylation ratio of FAM labelled peptide (Peptide 18 for CDK2/CycA2, Peptide 8 for CDK4/CycD3 and CDK6/cycD3). CDK2/CycA2 and CDK6/cycD3 were assayed under buffer conditions in the presence of 50 mM HEPES (pH 7.5), 10 mM MgCl2, 0.0015% Brij-35, and 2 mM dithiothreitol, CDK4/CycD3 with buffer condition of 20 mM HEPES (pH 7.5), 10 mM MgCl2, 0.01% Triton X-100, and 2 mM dithiothreitol. Prepare compounds to 50× of the final desired highest inhibitor concentration by 100% DMSO and serial dilution in 3-fold for total of 10 concentrations. […] After assay for 60 min, 180 min, 60 min respectively at 28° C., reactions were terminated with stop solution (50 mM EDTA, 0.015% Brij-35, 0.2% Coating Reagent #3 and 100 mM HEPES (pH 7.5)). Collect conversion on Caliper EZ Reader. It is filed as protein-complex assay.

For experiment [2], the target named is CDK4/Cyclin D3 (Homo sapiens, UniProt P11802+P30281). The experiment is described as §1. Type of experiment: protein-complex assay.

pIC50: −log10 of the molar value. A value given as a limit tells only on which side of the number the result lay.

A word on the pIC50: it is −log10 of the IC50, conventionally taken in molar units.

Chain of CDK4/Cyclin D3 (P11802 whole entry): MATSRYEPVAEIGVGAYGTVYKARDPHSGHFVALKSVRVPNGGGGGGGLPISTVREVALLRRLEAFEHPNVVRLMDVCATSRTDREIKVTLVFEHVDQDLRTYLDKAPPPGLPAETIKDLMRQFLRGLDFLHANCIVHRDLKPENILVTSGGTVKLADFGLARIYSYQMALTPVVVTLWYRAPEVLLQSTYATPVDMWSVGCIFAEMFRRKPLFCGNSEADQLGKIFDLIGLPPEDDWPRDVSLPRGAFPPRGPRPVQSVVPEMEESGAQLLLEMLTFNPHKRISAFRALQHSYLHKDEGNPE
Chain of CDK4/Cyclin D3 (P30281 whole entry): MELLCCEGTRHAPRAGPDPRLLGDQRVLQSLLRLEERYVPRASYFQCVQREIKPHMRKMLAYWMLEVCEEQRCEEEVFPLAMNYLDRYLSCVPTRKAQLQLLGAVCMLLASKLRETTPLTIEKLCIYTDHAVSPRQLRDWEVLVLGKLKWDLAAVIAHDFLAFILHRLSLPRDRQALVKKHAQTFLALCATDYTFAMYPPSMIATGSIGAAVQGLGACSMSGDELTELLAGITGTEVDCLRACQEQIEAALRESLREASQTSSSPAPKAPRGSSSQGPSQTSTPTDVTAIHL

For `CC(=O)c1c(C)c2cnc(Nc3ccc4c(c3)OC[C@@H]3CNCCN43)nc2n(C2CCCC2)c1=O`, the pIC50 in experiment [1] was more than 8.00.

As to `CC(=O)c1c(C)c2cnc(Nc3ccc(N4CC5CNCC(C4)C5(F)F)cn3)nc2n(C2CCCC2)c1=O`, the negative logarithm of the IC50 (pIC50) in experiment [2] is more than 7.00. Regarding `CC(=O)c1c(C)c2cnc(Nc3ccc4c(c3)OC[C@H]3CNCCN43)nc2n(C2CCCC2)c1=O`, the negative logarithm of the IC50 (pIC50) in experiment [1] is more than 8.00.
